Results reported in PMC3820677 (PLoS ONE, 2013).

Biological target: mKv1.3 (Mus musculus, UniProt P16390)
Assay: cell-based

Chain of mKv1.3 (P16390 whole entry): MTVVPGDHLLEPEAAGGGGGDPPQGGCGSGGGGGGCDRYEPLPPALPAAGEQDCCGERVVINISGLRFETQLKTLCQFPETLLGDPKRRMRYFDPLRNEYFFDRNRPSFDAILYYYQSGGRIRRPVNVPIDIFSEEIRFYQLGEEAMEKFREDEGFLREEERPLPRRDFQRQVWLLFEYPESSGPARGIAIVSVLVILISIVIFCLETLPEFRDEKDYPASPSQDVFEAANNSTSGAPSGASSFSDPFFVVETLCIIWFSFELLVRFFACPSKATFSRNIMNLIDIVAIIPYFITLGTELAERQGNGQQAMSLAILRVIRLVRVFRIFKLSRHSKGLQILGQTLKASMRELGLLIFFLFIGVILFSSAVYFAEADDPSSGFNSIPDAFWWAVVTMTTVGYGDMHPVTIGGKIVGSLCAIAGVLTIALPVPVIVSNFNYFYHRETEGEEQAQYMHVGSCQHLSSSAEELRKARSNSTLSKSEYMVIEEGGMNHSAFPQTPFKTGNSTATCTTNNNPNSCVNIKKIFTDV

Work on `CC[C@H](C)[C@@H]1NC(=O)[C@@H](NC(=O)[C@H](CO)NC(=O)[C@@H](N)CCCNC(=N)N)CSSC[C@@H](C(=O)O)NC(=O)[C@H]([C@@H](C)O)NC(=O)CNC(=O)[C@@H]2CSSC[C@@H]3NC(=O)[C@H](CCC(N)=O)NC(=O)[C@H](Cc4ccccc4)NC(=O)[C@H](C)NC(=O)[C@H]([C@@H](C)O)NC(=O)[C@H](CSSC[C@H](NC(=O)[C@H](Cc4ccccc4)NC(=O)[C@H](CO)NC(=O)[C@H](CC(C)C)NC(=O)[C@H](CCCNC(=N)N)NC(=O)[C@H](Cc4ccc(O)cc4)NC(=O)[C@H](CCCCN)NC(=O)[C@H](CCSC)NC(=O)[C@H](CO)NC(=O)[C@H](Cc4cnc[nH]4)NC(=O)[C@H](CCCCN)NC3=O)C(=O)N[C@@H](CCCNC(=N)N)C(=O)N[C@@H](CCCCN)C(=O)N[C@@H]([C@@H](C)O)C(=O)N2)NC(=O)[C@H](CCCNC(=N)N)NC(=O)[C@H](CO)NC(=O)[C@H](CCCCN)NC(=O)[C@@H]2CCCN2C(=O)[C@H]([C@@H](C)CC)NC(=O)[C@H]([C@@H](C)O)NC(=O)[C@H](CC(=O)O)NC1=O` [ShK] yielded an IC50 of 9.3 ± 2 pM.
